Assay results taken from US8236783B2, “ROS-sensitive iron chelators and methods of using the same” (Duke University, priority 2006, dated 2012).
Entries after “also recorded” stand apart in the source; their conditions may differ.

Legend:
[1] = time course for iron complex formation following addition of excess H2O2 (UV-vis); type: physicochemical; settings: 100 mM H2O2 added to 1.5 mM Fe(NO3)3 and 3.0 mM BSIH in MeOH
Procedure: FIG. 2. UV-vis spectra showing the formation of [Fe(SIH)]^2+ and [Fe(SIH)2]^+ upon addition of 100 mM H2O2 to a solution of 1.5 mM Fe(NO3)3 and 3.0 mM BSIH in MeOH.
Although the kinetics are complicated by the mono to bis Fe(SIH)x coordination, the data fit a pseudo first-order expression to give kobs=1.6×10^−3 s^−1.

[2] = UV-vis spectra of iron complex formation; type: physicochemical; settings: 60 μM BSIH, 30 μM Fe(NO3)3 in MeOH
Description: FIG. 1. […] The expanded view in the inset compares the mono and bis species [Fe(SIH)Cl2(CH3OH)] and [Fe(SIH)2]NO3, respectively.
These two species are distinguishable by a ligand-field band centered at 658 nm that is more pronounced in the mono species compared to the bis species (FIG. 1 inset).

[3] = 2-deoxyribose oxidative degradation assay (hydroxyl radical formation); settings: chelator 0-400 μM, 200 μM H2O2, 10 μM FeCl3, 2 mM ascorbic acid, 15 mM deoxyribose, pH 7.4, 60 min at 37° C.
Procedure: Effect of chelator concentration on deoxyribose degradation by OH.. A and A0 are the absorbance at 532 nm in the presence or absence of chelator, respectively. Values below A/Ao=1 indicate protection of deoxyribose. Conditions: 200 μM H2O2, 10 μM FeCl3, 2 mM ascorbic acid, 15 mM deoxyribose in pH 7.4 NaHPO4 buffer.
Values of A/Ao above 1 indicate that the additive promotes OH. formation, whereas values below 1 indicate that the additive either scavenges OH. more efficiently than deoxyribose, or that it inhibits iron-catalyzed OH. formation via effective iron chelation.
The formation of hydroxyl radicals was measured by using a 2-deoxyribose oxidative degradation assay (Aruoma, O. I., Deoxyribose Assay for Detecting Hydroxyl Radicals. In Methods in Enzymol., 1994; Vol. 233, pp 57-66; Halliwell, B. et al., Anal. Biochem. 1987, 165, 215-219). In this assay, hydroxyl radicals, generated by reaction of an iron complex with H2O2 in the presence of ascorbic acid as a reducing agent, attack 2-deoxyribose to form malondialdehyde, which upon heating with TBA at low pH yields a pink chromogen (λmax=532 nm). Scavengers that react more effectively with hydroxyl radicals than deoxyribose result in less chromogen formation. Chelators that prevent iron from reacting with H2O2 also result in a decrease in absorption at 532 nm. Many standard buffers such as HEPES and TRIS are hydroxyl radical scavengers; therefore, we performed all assays in 50 mM NaH2PO4 buffered to pH 7.4. Our standard reaction conditions consisted of 1-mL buffered solutions prepared by sequential addition of the following reagents at their final concentrations: chelator (0-400 μM), FeCl3 (10 μM), 2-deoxyribose (15 mM), H2O2 (200 μM) and ascorbic acid (2 mM). The reactions were stirred for 60 min at 37° C., then quenched with 1 mL of TBA (1% w/v in 0.05 M NaOH) and 1 mL of TCA (2.8% w/v in water). After heating to 100° C. for 20 min, the solutions were cooled to room temperature and their absorbance at 532 nm recorded. The data are reported as A/Ao, where A is the absorbance at a 532 nm at a specific chelator concentration, and Ao is the absorbance at 532 nm for the background reaction containing no added chelator. All measurements were done in triplicate, and error bars reflect the standard deviation from triplicate runs.

Structure (SMILES) | kobs (pseudo first-order) for iron complex formation [1] [s⁻¹] | iron complex formation after addition of H2O2 (UV-vis spectrum) ([2]; 0.6 mM H2O2 added) | complex formation with Fe^3+ (UV-vis spectrum) ([2]; no H2O2) | effect of chelator concentration on deoxyribose degradation, A/Ao at 532 nm [3]
CC1(C)OB(c2ccccc2C=NNC(=O)c2ccncc2)OC1(C)C [BSIH, Isonicotinic acid [2-(4,4,5,5-tetramethyl-[1,3,2]dioxaborolan-2-yl)-benzylidene]-hydrazide] | 0.0016 | results in formation of a new spectrum matching that of [Fe(SIH)2]^+; also recorded: results in a spectrum (open circles) that matches that of [Fe(SIH)2]^+ | does not form a complex; also recorded: no complex formation | protects against deoxyribose degradation as well as both DFO and SIH
CC1(C)OB(c2ccccc2C=O)OC1(C)C [Bsal, (2-formylphenyl)boronic acid pinacol ester] |  |  |  | Neither Bsal nor Sal has a significant influence
CC(=O)N(O)CCCCCNC(=O)CCC(=O)N(O)CCCCCNC(=O)CCC(=O)N(O)CCCCCN [DFO, desferrioxamine] |  |  |  | decrease
O=C(O)CN(CCN(CC(=O)O)CC(=O)O)CC(=O)O [EDTA] |  |  |  | significant increase
O=C(NN=Cc1ccccc1O)c1ccncc1 [SIH, salicylaldehyde isonicotinoyl hydrazone] |  |  |  | decrease
